{"source": "paper PMC10272112", "about": "(Nature Communications, 2023)", "key": {"MBLAC2": {"biological_target": "T1, MBLAC2 (Homo sapiens, UniProt Q68D91)", "T1 construct": "endogenous in cells; host or cells: cell lysate", "T1 sequence (Q68D91 1-279)": "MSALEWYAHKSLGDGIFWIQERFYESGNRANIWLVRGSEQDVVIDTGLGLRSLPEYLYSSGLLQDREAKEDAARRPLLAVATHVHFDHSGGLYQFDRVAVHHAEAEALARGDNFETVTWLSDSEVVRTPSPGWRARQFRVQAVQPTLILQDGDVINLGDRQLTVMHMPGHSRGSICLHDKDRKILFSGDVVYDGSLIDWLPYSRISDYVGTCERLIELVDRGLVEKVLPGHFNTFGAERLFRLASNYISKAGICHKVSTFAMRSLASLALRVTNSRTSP", "assay": "Chemoproteomic competition pulldown assay with iC", "format": "binding", "settings": "for relative binding vs DMSO: iC", "experimental": "(§1) To identify proteins directly bound by lipoic acid, we employed a chemoproteomic competition assay. Briefly, (R/S)-LA was immobilized on sepharose beads via an amidation reaction to form an affinity matrix (abbreviated as iL; Fig. 1a). This affinity matrix can be incubated with cell lysate to pull down potential LA or LM target proteins and identify these targets via bottom-up proteomics. In a competition assay, free LA or LM were incubated with lysate at different concentrations before pulling down and quantifying target proteins. […] (Fig. 1b, see “Methods” for details). […] The lysate buffer used in this assay contains 1 mM DTT to mimic the intracellular reductive milieu and to reduce lipoic acid and LM. […] Additional competition assays performed in lung adenocarcinoma cell A549 lysate also identified HDAC1, HDAC2, and HDAC6 as targets (Supplementary Fig. 1b). Amongst the three cell lines tested, HDACs were the only confidently identified targets across the 1500–3000 proteins quantified in these assays. […] We validated the results by analogous pulldown competition assays using two other affinity matrices prepared via the immobilization of either the HDAC inhibitor Quisinostat (iQ) and an analog of the class IIa HDAC inhibitor Bürli’s 31[14] (iC)[12]. We have previously shown that these affinity matrices specifically bind to the active sites of HDACs and have used them for HDACi selectivity profiling. Indeed, binding of (R/S)-LA and (R/S)-LM to HDAC1, HDAC2, HDAC3, HDAC6, and, to a lesser extent, HDAC8 was confirmed in these assays (Supplementary Fig. 1c, d). No binding to class IIa HDACs or the recently discovered common HDAC inhibitor off-target MBLAC2 was observed (Supplementary Fig. 1e)[12]. […] This observation might reflect electrostatic repulsion between the HDAC10 active site gate-keeper glutamic acid residues[15],[16] and the terminal carboxylic acid of LA.\n(§2) To assess the degree of protein depletion from lysates by the affinity matrix, a second pulldown (PDPD) with fresh beads was performed using the unbound protein fraction from the vehicle control flow through. The beads were washed (1 × 1 mL of lysis buffer without inhibitors and only 0.4% Igepal, 2 × 2 mL of lysis buffer without inhibitors and only 0.2% Igepal), and captured proteins were denatured with 8 M urea buffer, alkylated with 55 mM chloroacetamide and digested with Trypsin according to standard procedures. The resulting peptides were desalted on a C18 filter plate (Sep-Pak® tC18 µElution Plate, Waters), vacuum dried, and stored at −20 °C until LC–MSMS measurement.\n(§3) For the competition assays, relative binding was calculated based on the protein intensity ratio to the DMSO control for every single inhibitor concentration. EC50 values were derived from a four-parameter log-logistic regression with variable slope (constrain: bottom > 0). The obtained EC50 values were multiplied with a protein-dependent correction factor (cf), resulting in the apparent Kd value (Kd^app). The correction factor is determined by calculating the ratio of the protein intensity of two consecutive pulldowns of the vehicle control sample[13]. Targets of the inhibitors were annotated manually according to published procedures[12],[46],[47]. […] Additionally, the number of unique peptides and MSMS counts per condition were taken into account. Positive target binding across several independent experiments performed with different cell lysates further substantiated our confidence for a true positive drug-target binding event."}, "HDAC7": {"biological_target": "T2, HDAC7 (Homo sapiens, UniProt Q8WUI4)", "T2 construct": "endogenous in cells; host or cells: cell lysate", "T2 sequence (Q8WUI4 1-952)": "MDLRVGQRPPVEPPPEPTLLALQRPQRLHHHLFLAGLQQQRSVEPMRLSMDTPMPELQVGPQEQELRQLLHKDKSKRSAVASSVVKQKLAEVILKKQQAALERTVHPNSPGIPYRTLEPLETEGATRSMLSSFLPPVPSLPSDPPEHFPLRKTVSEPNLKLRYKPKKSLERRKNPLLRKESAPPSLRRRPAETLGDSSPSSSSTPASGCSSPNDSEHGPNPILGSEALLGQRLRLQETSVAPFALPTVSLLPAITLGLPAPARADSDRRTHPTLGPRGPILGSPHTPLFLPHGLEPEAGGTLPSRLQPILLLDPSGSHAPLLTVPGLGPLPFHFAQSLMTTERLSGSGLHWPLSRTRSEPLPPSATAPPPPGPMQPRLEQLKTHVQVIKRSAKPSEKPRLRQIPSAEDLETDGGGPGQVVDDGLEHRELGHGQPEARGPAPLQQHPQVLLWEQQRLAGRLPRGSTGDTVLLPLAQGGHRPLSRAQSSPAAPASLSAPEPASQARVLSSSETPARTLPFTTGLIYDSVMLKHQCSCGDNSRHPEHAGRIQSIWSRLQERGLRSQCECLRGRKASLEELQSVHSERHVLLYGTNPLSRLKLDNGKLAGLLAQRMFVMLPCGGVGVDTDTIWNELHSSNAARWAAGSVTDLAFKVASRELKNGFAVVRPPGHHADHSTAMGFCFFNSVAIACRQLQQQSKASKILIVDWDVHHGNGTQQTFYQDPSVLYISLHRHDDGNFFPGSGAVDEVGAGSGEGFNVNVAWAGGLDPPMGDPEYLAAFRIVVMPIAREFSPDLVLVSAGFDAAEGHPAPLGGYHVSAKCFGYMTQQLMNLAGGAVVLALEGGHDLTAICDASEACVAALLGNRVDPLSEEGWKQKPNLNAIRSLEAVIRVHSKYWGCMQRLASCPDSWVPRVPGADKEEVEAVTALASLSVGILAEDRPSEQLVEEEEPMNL", "assay": "Chemoproteomic competition pulldown assay with iC", "format": "binding", "experimental": "as §1, §2, §3"}}, "data": [{"smiles": "O=C(O)CCCCC1CCSS1", "note": "(racemic) [(R/S)-LA, (R/S)-lipoic acid]", "values": [{"measurement": "binding to MBLAC2", "setting": "MBLAC2; affinity matrix iC", "result": "No binding"}, {"measurement": "relative binding vs DMSO", "setting": "MBLAC2; log10 M -3.52288", "result": 0.9784}, {"measurement": "relative binding vs DMSO", "setting": "MBLAC2; log10 M -4", "result": 1.054}, {"measurement": "relative binding vs DMSO", "setting": "MBLAC2; log10 M -4.52288", "result": 1.366}, {"measurement": "relative binding vs DMSO", "setting": "MBLAC2; log10 M -5", "result": 1.348}, {"measurement": "relative binding vs DMSO", "setting": "MBLAC2; log10 M -5.52288", "result": 1.098}, {"measurement": "relative binding vs DMSO", "setting": "MBLAC2; log10 M -6", "result": 1.484}, {"measurement": "relative binding vs DMSO", "setting": "MBLAC2; log10 M -6.52288", "result": 0.5203}, {"measurement": "relative binding vs DMSO", "setting": "MBLAC2; log10 M -7", "result": 0.9131}, {"measurement": "relative binding vs DMSO", "setting": "HDAC7; log10 M -3.52288", "result": 1.458}, {"measurement": "relative binding vs DMSO", "setting": "HDAC7; log10 M -4", "result": 1.397}, {"measurement": "relative binding vs DMSO", "setting": "HDAC7; log10 M -4.52288", "result": 1.757}, {"measurement": "relative binding vs DMSO", "setting": "HDAC7; log10 M -5", "result": 1.642}, {"measurement": "relative binding vs DMSO", "setting": "HDAC7; log10 M -5.52288", "result": 1.564}, {"measurement": "relative binding vs DMSO", "setting": "HDAC7; log10 M -6", "result": 1.746}, {"measurement": "relative binding vs DMSO", "setting": "HDAC7; log10 M -6.52288", "result": 1.164}, {"measurement": "relative binding vs DMSO", "setting": "HDAC7; log10 M -7", "result": 1.455}]}]}
